# Where a name gives a salt, the structure may show the parent alone.
# Key:
# Assay type in all cases: biochemical
# [1] = target: T1, FAAH (Homo sapiens (Human), UniProt O00519); test: Assay Method 1: FAAH assay, T84 cell homogenate, 3H-anandamide hydrolysis; conditions: 3H-AEA tracer 200 nM, 1 h at rt
# Outline: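 Homogenate of human T84 cells in pH 9 Tris/EDTA buffer with 0.02% Triton X-100 was incubated with compound and 200 nM final 3H-anandamide for 1 h at rt. Released [3H]ethanolamine was separated from substrate through activated charcoal by centrifugation and quantified by scintillation counting.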
# [2] = target: T1, FAAH; test: Assay Method 2: FAAH assay, cells transfected with human FAAH; conditions: T84 or human FAAH-transfected SK-N-MC cell homogenate, 3H-AEA tracer 80 nM, 1 h at rt
# Method: Assay Method 2 A. Transfection of Cells with Human FAAH
# (§1) A 10-cm tissue culture dish with a confluent monolayer of SK-N-MC cells was split 2 days (d) prior to transfection. Using sterile technique, the media was removed and the cells were detached from the dish by the addition of trypsin. One fifth of the cells were then placed onto a new 10-cm dish. Cells were grown in a 37° C. incubator with 5% CO2 in Minimal Essential Media Eagle with 10% Fetal Bovine Serum. After 2 d, cells were approximately 80% confluent. These cells were removed from the dish with trypsin and pelleted in a clinical centrifuge. The pellet was re-suspended in 400 μL complete media and transferred to an electroporation cuvette with a 0.4 cm gap between the electrodes. Supercoiled human FAAH cDNA (1 pg) was added to the cells and mixed. The voltage for the electroporation was set at 0.25 kV, and the capacitance was set at 960 μF. After electroporation, the cells were diluted into complete media (10 mL) and plated onto four 10-cm dishes. Because of the variability in the efficiency of electroporation, four different concentrations of cells were plated. The ratios used were 1:20, 1:10, and 1:5, with the remainder of the cells being added to the fourth dish. The cells were allowed to recover for 24 h before adding the selection media (complete media with 600 μg/mL G418). After 10 d, dishes were analyzed for surviving colonies of cells. Dishes with well-isolated colonies were used. Cells from individual colonies were isolated and tested.
# (§2) T84 frozen cell pellets or transfected SK-N-MC cells (contents of 1×15 cm culture dishes) were homogenized in 50 mL of FAAH assay buffer (125 mM Tris, 1 mM EDTA, 0.2% Glycerol, 0.02% Triton X-100, 0.4 mM Hepes, pH 9). The assay mixture consisted of 50 μL of the cell homogenate, 10 μL of the test compound, and 40 pt of anandamide [1-^3H-ethanolamine] (^3H-AEA, Perkin-Elmer, 10.3 Ci/mmol), which was added last, for a final tracer concentration of 80 nM. The reaction mixture was incubated at rt for 1 h. During the incubation, 96-well Multiscreen filter plates (catalog number MAFCNOB50; Millipore, Bedford, Mass., USA) were loaded with 25 μL of activated charcoal (Multiscreen column loader, catalog number MACL09625, Millipore) and washed once with 100 μL of MeOH. Also during the incubation, 96-well DYNEX MicroLite plates (catalog number NL510410) were loaded with 100 μL of MicroScint40 (catalog number 6013641, Packard Bioscience, Meriden, Conn., USA). After the 1 h incubation, 60 μL of the reaction mixture were transferred to the charcoal plates, which were then assembled on top of the DYNEX plates using Centrifuge Alignment Frames (catalog number MACF09604, Millipore). The unbound labeled ethanolamine was centrifuged through to the bottom plate (5 min at 2000 rpm), which was preloaded with the scintillant, as described above. The plates were sealed and left at rt for 1 h before counting on a Hewlett Packard TopCount.
# [3] = target: rat FAAH (Rattus norvegicus (Rat), UniProt P97612); test: Assay Method 3: FAAH assay, cells transfected with rat FAAH; conditions: T84 or rat FAAH-transfected SK-N-MC cell homogenate, 3H-AEA tracer 80 nM, 1 h at rt
# Method: Assay Method 3 A. Transfection of Cells with Rat FAAH
# as §1, with “rat” for “human”, “μg)” for “pg)”
# as §2, with “μL” for “pt”
# Sequence of rat FAAH (P97612 whole entry): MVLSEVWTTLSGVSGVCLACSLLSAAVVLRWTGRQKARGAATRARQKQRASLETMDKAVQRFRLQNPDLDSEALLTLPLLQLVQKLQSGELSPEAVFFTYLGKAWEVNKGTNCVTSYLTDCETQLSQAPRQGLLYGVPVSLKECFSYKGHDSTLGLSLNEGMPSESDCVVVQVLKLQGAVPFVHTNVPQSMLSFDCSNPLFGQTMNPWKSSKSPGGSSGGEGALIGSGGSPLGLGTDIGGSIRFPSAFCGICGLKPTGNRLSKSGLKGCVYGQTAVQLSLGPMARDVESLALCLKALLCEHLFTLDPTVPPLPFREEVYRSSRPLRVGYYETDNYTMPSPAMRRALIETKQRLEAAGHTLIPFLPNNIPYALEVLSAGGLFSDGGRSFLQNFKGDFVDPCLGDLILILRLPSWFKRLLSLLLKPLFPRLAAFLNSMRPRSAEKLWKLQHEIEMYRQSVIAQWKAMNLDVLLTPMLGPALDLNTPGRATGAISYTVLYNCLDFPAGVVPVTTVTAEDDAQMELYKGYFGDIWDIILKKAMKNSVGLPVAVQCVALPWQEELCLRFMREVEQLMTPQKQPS
# T1 sequence (O00519 whole entry): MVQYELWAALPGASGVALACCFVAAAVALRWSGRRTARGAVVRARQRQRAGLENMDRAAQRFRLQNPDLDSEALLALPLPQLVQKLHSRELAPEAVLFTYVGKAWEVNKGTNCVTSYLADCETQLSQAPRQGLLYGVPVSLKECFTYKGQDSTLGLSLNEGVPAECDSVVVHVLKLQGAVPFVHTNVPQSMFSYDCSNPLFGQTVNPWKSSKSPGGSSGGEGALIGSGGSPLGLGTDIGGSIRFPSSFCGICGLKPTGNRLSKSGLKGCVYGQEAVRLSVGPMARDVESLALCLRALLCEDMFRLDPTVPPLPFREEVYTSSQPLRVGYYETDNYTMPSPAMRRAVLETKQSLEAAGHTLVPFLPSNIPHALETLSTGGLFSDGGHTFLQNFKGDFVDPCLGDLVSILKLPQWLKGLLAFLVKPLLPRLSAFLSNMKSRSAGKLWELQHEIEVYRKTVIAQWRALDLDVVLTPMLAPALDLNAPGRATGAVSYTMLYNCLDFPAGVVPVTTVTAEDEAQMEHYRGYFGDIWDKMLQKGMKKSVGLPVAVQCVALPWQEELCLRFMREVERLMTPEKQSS
Compound,IC50 [1],IC50 [2],IC50 [3]
"O=C(Nc1cccnc1)N1CCN(Cc2cnc3ccccc3c2)CC1 [Example 142, 4-Quinolin-3-ylmethyl-piperazine-1-carboxylic acid pyridin-3-ylamide]",–,4.1 µM,4 µM
"COC(=O)c1ccccc1NC(=O)N1CCN(Cc2cnc3ccccc3c2)CC1 [Example 105, 2-[(4-Quinolin-3-ylmethyl-piperazine-1-carbonyl)-amino]-benzoic acid methyl ester]",–,> 10 µM,10 µM
"O=C(Nc1ccc(F)cc1)N1CCN(Cc2cnc3ccccc3c2)CC1 [Example 98, 4-Quinolin-3-ylmethyl-piperazine-1-carboxylic acid (4-fluoro-phenyl)-amide]",0.13 µM,0.22 µM,6.5 µM
"O=C(Nc1ccccc1)N1CCN(Cc2ccc3c(c2)OC(F)(F)O3)CC1 [Example 52, 4-(2,2-Difluoro-benzo[1,3]dioxol-5-ylmethyl)-piperazine-1-carboxylic acid phenylamide]",0.087 µM,0.1 µM,0.29 µM
"O=C(Nc1ccncc1)N1CCN(Cc2ccc3c(c2)OC(F)(F)O3)CC1 [Example 151, 4-(2,2-Difluoro-benzo[1,3]dioxol-5-ylmethyl)-piperazine-1-carboxylic acid pyridin-4-ylamide]",–,1.7 µM,2 µM
"COC(=O)c1cccc(NC(=O)N2CCN(Cc3cnc4ccccc4c3)CC2)c1 [Example 106, 3-[(4-Quinolin-3-ylmethyl-piperazine-1-carbonyl)-amino]-benzoic acid methyl ester]",–,0.23 µM,2 µM
"O=C(Nc1ccncc1)N1CCN(Cc2ccc3c(c2)OCO3)CC1 [Example 147, 4-Benzo[1,3]dioxol-5-ylmethyl-piperazine-1-carboxylic acid pyridin-4-ylamide]",–,3 µM,10 µM
"O=C(Nc1ccncn1)N1CCN(Cc2cnc3ccccc3c2)CC1 [Example 152, 4-Quinolin-3-ylmethyl-piperazine-1-carboxylic acid pyrimidin-4-ylamide]",–,4 µM,10 µM
"COC(=O)c1ccc(NC(=O)N2CCN(Cc3cnc4ccccc4c3)CC2)cc1 [Example 107, 4-[(4-Quinolin-3-ylmethyl-piperazine-1-carbonyl)-amino]-benzoic acid methyl ester]",–,0.65 µM,8 µM
"O=C(Nc1ccccn1)N1CCN(Cc2ccc3c(c2)OCO3)CC1 [Example 149, 4-Benzo[1,3]dioxol-5-ylmethyl-piperazine-1-carboxylic acid pyridin-2-ylamide]",–,4 µM,10 µM
"O=C(Nc1ccncc1)N1CCN(Cc2cnc3ccccc3c2)CC1 [Example 144, 4-Quinolin-3-ylmethyl-piperazine-1-carboxylic acid pyridin-4-ylamide]",–,2 µM,10 µM

# Now from value to compound:
IC50 [1],IC50 [2],IC50 [3],Compound
0.22 µM,0.38 µM,10 µM,"CC(C)c1ccc(CN2CCN(C(=O)Nc3ccccc3)CC2)cc1 [Example 32, 4-(4-Isopropyl-benzyl)-piperazine-1-carboxylic acid phenylamide]"
–,1 µM,60 µM,"O=C(Nc1ccncn1)N1CCN(Cc2ccc3c(c2)OC(F)(F)O3)CC1 [Example 153, 4-(2,2-Difluoro-benzo[1,3]dioxol-5-ylmethyl)-piperazine-1-carboxylic acid pyrimidin-4-ylamide]"
0.29 µM,0.33 µM,0.41 µM,"O=C(Nc1ccccc1)N1CCN(Cc2cc(Br)ccc2O)CC1 [Example 34, 4-(5-Bromo-2-hydroxy-benzyl)-piperazine-1-carboxylic acid phenylamide]"
–,0.065 µM,0.35 µM,"O=C(Nc1ccccc1)N1CCN(Cc2ccc(Cl)c(Cl)c2)CC1 [Example 157, 4-(3,4-Dichloro-benzyl)-piperazine-1-carboxylic acid phenylamide]"
–,8 µM,10 µM,"O=C(O)c1ccc(NC(=O)N2CCN(Cc3cnc4ccccc4c3)CC2)cc1 [Example 155, 4-[(4-Quinolin-3-ylmethyl-piperazine-1-carbonyl)-amino]-benzoic acid]"
–,> 10 µM,10 µM,"O=C(Nc1nccs1)N1CCN(Cc2cnc3ccccc3c2)CC1 [Example 158, 4-Quinolin-3-ylmethyl-piperazine-1-carboxylic acid thiazol-2-ylamide]"
–,0.84 µM,8 µM,"O=C(Nc1ccccc1)N1CCN(Cc2cnc3ccccc3n2)CC1 [Example 156, 4-Quinoxalin-2-ylmethyl-piperazine-1-carboxylic acid phenylamide]"
–,> 10 µM,10 µM,"O=C(O)c1ccccc1NC(=O)N1CCN(Cc2cnc3ccccc3c2)CC1 [Example 140, 2-[(4-Quinolin-3-ylmethyl-piperazine-1-carbonyl)-amino]-benzoic acid (potassium salt)]"
–,5 µM,8 µM,"O=C(O)c1cccc(NC(=O)N2CCN(Cc3cnc4ccccc4c3)CC2)c1 [Example 141, 3-[(4-Quinolin-3-ylmethyl-piperazine-1-carbonyl)-amino]-benzoic acid (potassium salt)]"
–,0.38 µM,6.5 µM,"O=C(Nc1cccnc1)N1CCN(Cc2ccc3c(c2)OCO3)CC1 [Example 146, 4-Benzo[1,3]dioxol-5-ylmethyl-piperazine-1-carboxylic acid pyridin-3-ylamide]"
–,8 µM,10 µM,"O=C(Nc1ncccn1)N1CCN(Cc2cnc3ccccc3c2)CC1 [Example 145, 4-Quinolin-3-ylmethyl-piperazine-1-carboxylic acid pyrimidin-2-ylamide]"

# From patent US9169224B2, “Piperazinyl and piperidinyl ureas as modulators of fatty acid amide hydrolase” (Janssen Pharmaceutica NV, priority 2004, dated 2015)
